The target of one experiment is T1, CDK4 (Homo sapiens, UniProt P11802).
T1 construct: purchased Invitrogen PR8064A
As to the kind of experiment: In vitro kinase inhibition IC50, luminescence (ADP Glo) with retinoblastoma as substrate. The following applies: ATP 25 μM, 2H at room temperature. It is filed as biochemical. How it is done: (§1) IC50 values of compounds against CDK4 and CDK6 were determined by luminescence using retinoblastoma as substrate. Kinase assays were performed in kinase buffer (#PV6135, Invitrogen, Life Technologies Grand Island, N.Y.) where total reaction volume was 30 μL/well in 96-well half area white plates (#3693, Costar). One microliter of 25×test compounds at specific concentrations (e.g., final concentration range: 0.1 nM-200 nM) was mixed with 10 μL of 2.5×kinase (5 nM, CDK4 #PR8064A and CDK6 #PR8422B, Invitrogen) solution and 14 μL of 4× mixed solution with retinoblastoma (1 μM, #12-439, EMD Millipore, Hayward, Calif.) and ATP (25 μM, #V7038, Promega, Madison, Wis.). The plates were covered and incubated for 2H at room temperature. At the end of incubation, 25 μL of stop solution—ADP Glo reagent (#V7002, Promega) was added. After incubation for 45 min at room temperature, 50 μL of detection reagent (##V7002, Promega) was added. Readings were taken at 15 min and 45 min incubation after detection reagent was added in a Synergy Neo Plate reader (BioTek, Winooski, Vt.) at single excitation of 340 nm and Dual emission at 495 nm and 520 nm respectively. The following equations were used in the CDK4 and CDK6 assay data analysis. Percent inhibition (100-% activity) was fitted to the “four-parameter logistic model” in XLfit for determination of IC50 values.
(§2) Percent conversion of enzyme=100−{(RLUNo Drug−No enzyme*100)/RLUNo drug+Enzyme} Equation 1
(§3) Percent conversion at each data point=100−{(RLUAverage(Drug+enzyme)*100)/RLUNo drug+Enzyme} Equation 2
(§4) Percent Inhibition=100*(% Conversioneach data point/% ConversionEnzyme) Equation 3

Another experiment addresses T2, CDK6 (Homo sapiens, UniProt Q00534).
T2 construct: purchased Invitrogen PR8422B
Described as above. It is filed as biochemical. The following applies: ATP 25 μM, 2H at room temperature. How it is done:
as §1, §2, §3, §4

In the next experiment the target is T3, CDK1 (cyclin B) (Homo sapiens, UniProt P06493).
T3 construct: purchased Invitrogen Life Technologies (assay run at the vendor)
Nature of the experiment: Z'-LYTE kinase inhibition IC50. The class given is biochemical. The following applies: ATP 34 μM, 60 minutes at room temperature. How it is done:
IC50 values of compounds against CDK1 (cyclin B) were determined by Z′-LYTE™. These screening assays were performed at Invitrogen Life Technologies (Grand Island, N.Y.) on a low volume NBS, black 384-well plate (#4514, Corning). 0.1 μL of 100× test compound in 100% DMSO (at specific solutions) was mixed with 2.4 μL of Kinase Buffer (50 mM HEPES pH 7.5, 0.01% BRIJ-35, 10 mM MgCl2, 1 mM EGTA), 5 μL of 2× Kinase (3.5-46.4 ng CDK1/cyclin B)/Peptide (2 μM Ser/Thr 18), and 2.5 μL of 4×ATP solution (34 μM). The plates were shaken for 30 seconds, and incubated for 60 minutes at room temperature. Development Reagent Solution (5 μL of 1:1024 dilution) was added to the plates followed with another 30-second plate shake, and the plates were further incubated at room temperature for one hour. The plates were read on fluorescence plate reader with Dual emission at 445 nm and 520 nm.
(§5) The following equations were used for Z′-LYTE™ Screening Assay Data Analysis. Percent inhibition (100-% activity) was fitted to the “four-parameter logistic model” in XLfit for determination of IC50 values.

For the next experiment, the target named is T4, CDK2 (cyclin A) (Homo sapiens, UniProt P24941).
T4 construct: purchased Invitrogen Life Technologies (assay run at the vendor)
Nature of the experiment: Z'-LYTE kinase inhibition IC50. The class given is biochemical. The following applies: ATP 31 μM, 60 minutes at room temperature. As to the method:
IC50 values of compounds against CDK2 (cyclin A) were determined by Z′-LYTE™. These screening assays were performed at Invitrogen Life Technologies (Grand Island, N.Y.) on a low volume NBS, black 384-well plate (#4514, Corning). 0.1 μL of 100× test compound in 100% DMSO (at specific solutions) was mixed with 2.4 μL of Kinase Buffer (50 mM HEPES pH 7.5, 0.01% BRIJ-35, 10 mM MgCl2, 1 mM EGTA), 5 μL of 2× Kinase (1.22-10.3 ng CDK2/cyclin A)/Peptide (2 μM Ser/Thr 12), and 2.5 μL of 4×ATP solution (31 μM). The plates were shaken for 30 seconds, and incubated for 60 minutes at room temperature. Development Reagent Solution (5 μL of 1:1024 dilution) was added to the plates followed with another 30-second plate shake and the plates were further incubated at room temperature for one hour. The plates were read on fluorescence plate reader with Dual emission at 445 nm and 520 nm.
as §5

In the next experiment the test system is DU4475. Nature of the experiment: Cancer cell proliferation assay as a single agent (cell viability). The class given is cell-based. The following applies: Homo sapiens, DU-4475; DU4475 breast carcinoma, Rb Negative, 144H treatment. How it is done: (§6) The effects of test compounds were studied in two breast cancer cell lines of different subtype. The cancer cells (Table 3) were harvested during the logarithmic growth period and counted. Cell concentrations were adjusted to the appropriate number with respective medium and 90 μL cell suspensions were added to 96-well plates. After cells were seeded, the plates were shaken gently to distribute cells evenly and incubated at 37° C., 5% CO2 on day 1.
(§7) Cells were treated with test compounds at 7 to 9 concentrations within a desired concentration range (e.g. 1.1 nM-10 μM) on day 2 by series diluting the test compound stock solution (10 mM in DMSO) with culture medium. Treatment duration was 144H (with a medium change at 72H) for both MCF-7 and DU4475 cells. Cell viability was assessed by Cell Titer-Glo® as recommended by Promega (Cat. No.: G7572), or by resazurin assay (Sigma Aldrich, Cat. No.: R7017) post treatment.
(§8) Cell viability data were plotted using GraphPad Prism (GraphPad Software, Inc., San Diego, Calif.). In addition, a nonlinear regression model with a sigmoidal dose response and variable slope within GraphPad Prism was used to calculate the IC50 value of individual test compounds.

In another experiment the test system is MCF-7. The experiment is described as above. The class given is cell-based. The following applies: Homo sapiens, MCF7; MCF-7 breast adenocarcinoma, Rb Positive, 144H treatment. How it is done: as §6, §7, §8

pIC50: −log10 of the molar value.

T1 sequence (P11802 whole entry): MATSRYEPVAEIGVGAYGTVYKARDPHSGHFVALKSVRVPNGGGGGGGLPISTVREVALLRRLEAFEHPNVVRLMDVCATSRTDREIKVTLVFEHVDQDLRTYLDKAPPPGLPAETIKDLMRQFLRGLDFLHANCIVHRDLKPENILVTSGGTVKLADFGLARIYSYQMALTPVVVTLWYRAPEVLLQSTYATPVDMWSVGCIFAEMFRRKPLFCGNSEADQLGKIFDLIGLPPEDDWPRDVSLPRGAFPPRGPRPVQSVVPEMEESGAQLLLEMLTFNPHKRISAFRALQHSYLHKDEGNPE
T1 sequence (P24385 whole entry partner): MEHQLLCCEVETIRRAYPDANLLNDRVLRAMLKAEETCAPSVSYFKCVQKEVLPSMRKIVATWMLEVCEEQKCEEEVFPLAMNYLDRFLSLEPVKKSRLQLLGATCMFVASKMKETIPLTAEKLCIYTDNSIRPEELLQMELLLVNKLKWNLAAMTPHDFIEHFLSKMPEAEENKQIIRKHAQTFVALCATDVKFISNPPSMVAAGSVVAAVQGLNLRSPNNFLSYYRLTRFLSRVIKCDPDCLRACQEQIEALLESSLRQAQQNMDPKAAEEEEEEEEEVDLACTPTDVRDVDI
T2 sequence (Q00534 whole entry): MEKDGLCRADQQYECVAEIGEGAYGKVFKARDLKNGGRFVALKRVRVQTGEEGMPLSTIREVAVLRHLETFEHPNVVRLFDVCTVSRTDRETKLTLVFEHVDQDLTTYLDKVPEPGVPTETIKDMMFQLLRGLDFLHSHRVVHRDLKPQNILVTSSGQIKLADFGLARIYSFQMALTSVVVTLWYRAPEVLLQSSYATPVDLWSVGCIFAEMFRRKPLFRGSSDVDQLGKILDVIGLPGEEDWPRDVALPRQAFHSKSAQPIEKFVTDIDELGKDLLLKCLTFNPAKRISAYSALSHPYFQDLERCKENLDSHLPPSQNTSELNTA
T2 sequence (P24385 whole entry partner): as the sequence (P24385 whole entry partner) above
T3 sequence (P06493 whole entry): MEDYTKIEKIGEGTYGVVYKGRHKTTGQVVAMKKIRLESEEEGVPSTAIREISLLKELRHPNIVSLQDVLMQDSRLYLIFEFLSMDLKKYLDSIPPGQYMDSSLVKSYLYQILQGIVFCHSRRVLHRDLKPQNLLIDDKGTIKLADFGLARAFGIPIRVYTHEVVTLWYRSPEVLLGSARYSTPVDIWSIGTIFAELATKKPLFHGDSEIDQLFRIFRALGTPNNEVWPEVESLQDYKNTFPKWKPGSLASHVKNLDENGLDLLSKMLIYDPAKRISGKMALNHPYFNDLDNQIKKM
T3 sequence (P14635 whole entry partner): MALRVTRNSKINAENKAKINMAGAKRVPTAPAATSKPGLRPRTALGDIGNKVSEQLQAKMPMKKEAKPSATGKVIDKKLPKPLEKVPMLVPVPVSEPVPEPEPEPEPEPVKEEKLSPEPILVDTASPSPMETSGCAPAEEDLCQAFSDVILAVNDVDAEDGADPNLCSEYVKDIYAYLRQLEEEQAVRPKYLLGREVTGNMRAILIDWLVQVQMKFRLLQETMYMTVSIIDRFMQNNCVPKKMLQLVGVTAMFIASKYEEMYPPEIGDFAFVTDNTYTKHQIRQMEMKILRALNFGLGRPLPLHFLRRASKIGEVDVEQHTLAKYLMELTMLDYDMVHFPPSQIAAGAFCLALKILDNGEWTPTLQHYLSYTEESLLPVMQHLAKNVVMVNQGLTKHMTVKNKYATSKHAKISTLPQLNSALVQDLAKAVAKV

`CC(C)N1CCOc2c(F)cc(-c3nc(Nc4ccc5[nH]nc(C6CCNCC6)c5c4)ncc3F)cc21` [Compound 59, N-(5-fluoro-4-(8-fluoro-4-isopropyl-3,4-dihydro-2H-benzo[b][1,4]oxazin-6-yl)pyrimidin-2-yl)-3-(piperidin-4-yl)-1H-indazol-5-amine]: the pIC50 at CDK4 is 7.82; on CDK6, 7.62; at CDK1 (cyclin B), 8.15; at CDK2 (cyclin A), 7.82; with DU4475 it was 5.83; with MCF-7 it was 5.46.
With `CC(C)N1CCOc2c(F)cc(-c3nc(Nc4nc5cc(C6=CCNCC6)ccc5s4)ncc3F)cc21` [Compound 120, N-(5-fluoro-4-(8-fluoro-4-isopropyl-3,4-dihydro-2H-benzo[b][1,4]oxazin-6-yl)pyrimidin-2-yl)-5-(1,2,3,6-tetrahydropyridin-4-yl)benzo[d]thiazol-2-amine], the pIC50 was under 6.72 on CDK4, under 6.70 at CDK6, 6.89 in the experiment on DU4475 and 7.10 with MCF-7.

(Values after patent publication US20220281859A1, “HETEROCYCLIC COMPOUNDS AS KINASE INHIBITORS” (Nuvation Bio Inc., priority 2019, published 2022).)
